The values that follow come from patent US20240408274A1, “STENTS AND METHODS OF USE” (UNIVERSITY OF CONNECTICUT, priority 2021, published 2024).

For this assay, the system named is Urothelial cell. The assay can be described thus: Urothelial cell scratch assay (wound assay). As to conditions: at 48 hours; FIGS. 7A-7B. It is filed as cell-based. An excerpt: As used herein a “scratch assay,” (i.e., a wound assay) is a method to measure two-dimensional cell migration. Six growth factors were selected and tested: EGF, FGF-2, PDGF, TGF-β1, and VEGF.

For the substance “IGF-1: insulin-like growth factor 1, growth factor tested in urothelial scratch assay”, the wound gap coverage entry is recorded as “increase”.
Turning to “EGF: epidermal growth factor, growth factor tested in urothelial scratch assay (NSDSECPLSHDGYCLHDGVCMYIEALDKYACNCVVGYIGERCQYRDLKWWELR; UniProt P01133 971-1023, looked up)”, the wound gap coverage result is recorded as “increase”.
